Tested on: CD8+ T cells
Assay type: cell-based, human

| Sequence | #SFU |
| --- | --- |
| ELPQWLSANR | <10 |
| QTVEDEARRMW | 84 |
| RADEEQQQAL | 120 |

Source: patent publication US8440206B2 (priority 2006, dated 2013)
